The subject of assay [1] is Staphylococcus aureus 133. In words: Antibacterial activity in vitro, plast test (MIC). In kind it is cell-based. The note with it: agar plate, 5 × 10^3 /plate, pH 7.4. How it is done:
(§1) The in vitro tests were carried out by the plast test. In this, the bacteria were cast with the agar, at a concentration of 5 × 10^3 /plate. […]

Assay [2] has as its system Streptococcus pyogenes W. The assay is described as follows: Antibacterial activity in vitro, plast test (MIC). The class given is cell-based. The settings on record: agar plate, 5 × 10^3 /plate, pH 7.4; in µg/mL. How it is done: as §1
The subject of assay [3] is fungi. The settings on record: Belgian Pat. No. 720,801; cited from earlier work.
Assay [4] has as its system Trichophyton mentagrophvtes. The assay is described as follows: Antimycotic activity in vitro, series dilution test (MIC). The note with it: 28° C., 24-96 hours, Sabouraud's milieu d'epreuve, 5 × 10^4 germs/ml, read-out: MIC values in γ/ml of nutrient medium, for Trichophyton mentagrophvtes. In kind it is cell-based, Trichophyton mentagrophytes. How it is done:
(§2) The in vitro tests were carried out in a series dilution test with germ inocula averaging 5 × 10^4 germs/ml of substrate. The nutrient media used were
(§3) (a) for dermatophytes and molds Sabouraud's milieu d'epreuve,
(§4) The incubation temperatures were 28° C. for dermatophytes, yeasts and molds and 37° C. for biphase fungi; the incubation time was 24-96 hours.

The subject of assay [5] is Candida albicans. The assay is described as above. The class given is cell-based. The note with it: read-out: MIC values in γ/ml of nutrient medium, for Candida albicans. How it is done:
as §2
(b) for yeasts: meat extract-glucose bouillon,
as §4

The test system of assay [6] is Pityrosporum ovale. The description is as above. The note with it: Malassezia furfur; Abbe medium, 24-96 hours, 5 × 10^4 germs/ml; read-out: MIC values in γ/ml of nutrient medium, for Pityrosporum ovale. The class given is cell-based. How it is done:
The in vitro tests were carried out in a series dilution test with germ inocula averaging 5 × 10^4 germs/ml of substrate. The nutrient media used were (c) for Pytrosporum ovale: Abbe medium, and The incubation temperatures were 28° C. for dermatophytes, yeasts and molds and 37° C. for biphase fungi; the incubation time was 24-96 hours.

For assay [7], the system named is Aspergillus fumigatus. The assay is described as above. The settings on record: read-out: MIC values in γ/ml of nutrient medium, for Aspergillus fumigatus. The class given is cell-based. How it is done: as §2, §3, §4
Assay [8] deals with penicillium. The assay is described as above. The note with it: 28° C., 24-96 hours, Sabouraud's milieu d'epreuve, 5 × 10^4 germs/ml, read-out: MIC values in γ/ml of nutrient medium, for penicillium. In kind it is cell-based. How it is done: as §2, §3, §4
Assay [9] has as its system Histoplasma. In words: microbe, parasite or virus in culture. The settings on record: read-out: MIC values in γ/ml of nutrient medium, for Histoplasma. In kind it is cell-based.
For assay [10], the system named is bacteria. The assay is described as follows: Antibacterial activity (general statement). In kind it is cell-based.
Assay [11] concerns E-Coli A 261. In words: Antibacterial activity in vitro, plast test (MIC). In kind it is cell-based. The settings on record: agar plate, 5 × 10^3 /plate, pH 7.4. How it is done:
as §1

Assay [12] deals with Klebsiella 8085. The assay is described as follows: Antibacterial activity in vitro, plast test (MIC). In kind it is cell-based. The note with it: agar plate, 5 × 10^3 /plate, pH 7.4. How it is done: as §1
The subject of assay [13] is Proteus vulgaris 1017. In words: Antibacterial activity in vitro, plast test (MIC). In kind it is cell-based. The note with it: agar plate, 5 × 10^3 /plate, pH 7.4. How it is done: as §1
For assay [14], the system named is Pseudomonas aerug. B. In words: Antibacterial activity in vitro, plast test (MIC). In kind it is cell-based. The settings on record: agar plate, 5 × 10^3 /plate, pH 7.4. How it is done:
as §1

The mark [15] stands for this setting: 28° C., 24-96 hours, meat extract-glucose bouillon, 5 × 10^4 germs/ml.
The mark [16] stands for this setting: 28° C., 24-96 hours, Sabouraud's milieu d'epreuve, 5 × 10^4 germs/ml.

In brackets after ≈: the same amount, converted by molar mass. Read-outs that look alike come from different tables or passages of the source. A value given as a limit tells only on which side of the number the result lay.

In assay [1], `Clc1ccc(C(c2ccc(-c3ccccc3)cc2)n2ccnc2)cc1` (centres unmarked) gave an MIC values for Staphylococcus aureus 133 of 8 µg/mL. For the same compound, the “MIC values for Streptococcus pyogenes W” value in [2] came to 10.
For the compound `Clc1ccccc1C(c1ccccc1)(c1ccccc1)n1ccnc1` [clotrimazol, bisphenyl-(2-chlorophenyl)-imidazol-1-ylmethane], the antimycotic action entry in assay [3] is “good antimycotic action”.
As to `Clc1ccccc1C(c1ccc(-c2ccccc2)cc1)n1ccnc1` (centres unmarked) [drawing 10], the MIC in assay [4] was below 1 µg/mL; in assay [5] (setting [15]), 2 µg/mL (≈ 5.8 µM); in assay [6], 1 µg/mL (≈ 2.9 µM); in assay [7] (setting [16]) it was below 0.1 µg/mL; in assay [8], below 0.1 µg/mL; in assay [9], 4 µg/mL (≈ 11.6 µM).
`C[C@@H]1C/C=C/C=C/C=C/C=C/[C@H](O[C@@H]2O[C@H](C)[C@@H](O)[C@H](N)[C@@H]2O)C[C@@H]2O[C@](O)(C[C@@H](O)C[C@H]3O[C@@H]3/C=C/C(=O)O1)C[C@H](O)[C@H]2C(=O)O` [pimaricin]: the antibacterial activity result in assay [10] was “not present”.
`Clc1ccccc1C(c1ccc(-c2ccccc2)cc1)n1ccnc1` (centres unmarked) [drawing 14] registered an MIC values for E-Coli A 261 in assay [11] of 256 µg/mL. The compound further had an MIC values for Klebsiella 8085 in assay [12] of 128 µg/mL. This compound returned an MIC values for Proteus vulgaris 1017 in assay [13] of 128 µg/mL. This compound also yielded an MIC values for Pseudomonas aerug. B in assay [14] of 256 µg/mL. The MIC values for Staphylococcus aureus 133 in assay [1] worked out at 8 µg/mL. In addition, the “MIC values for Streptococcus pyogenes W” value in [2] stood at 128.
In [1], `Clc1cccc(C(c2ccc(-c3ccccc3)cc2)n2ccnc2)c1` (centres unmarked) [drawing 16] had an MIC values for Staphylococcus aureus 133 of 8 µg/mL. Further, the “MIC values for Streptococcus pyogenes W” value in [2] is 128.
`COC1=CC(=O)C[C@@H](C)[C@]12Oc1c(Cl)c(OC)cc(OC)c1C2=O` [griseofulvin]: the antibacterial activity entry in [10] was “not present”.
Compound `c1ccc(-c2ccc(C(c3ccccc3)n3ccnc3)cc2)cc1` (centres unmarked) [drawing 13] gave an MIC values for Klebsiella 8085 in assay [12] of 128 µg/mL. This compound also registered an MIC values for Proteus vulgaris 1017 in assay [13] of 128 µg/mL. The same compound yielded an MIC values for Staphylococcus aureus 133 in [1] of 8 µg/mL. For the same compound, the “MIC values for Streptococcus pyogenes W” value in assay [2] is 10-20.
Turning to `C[C@@H]1[C@H](O)[C@@H](C)/C=C/C=C/CC/C=C/C=C/C=C/C=C/C(O[C@H]2O[C@H](C)[C@@H](O)[C@H](N)[C@@H]2O)CC2O[C@](O)(CC(O)C(O)CCC(O)CC(O)CC(O)CC(=O)O[C@H]1C)CC(O)C2C(=O)O` (some centres unmarked) [nystatin], the antibacterial activity entry in assay [10] is “not present”.
For the compound `c1ccc(-c2ccc(C(c3ccccc3)n3ccnc3)cc2)cc1` (centres unmarked) [drawing 9], the MIC in assay [4] is below 1 µg/mL; in assay [5], 4 µg/mL (≈ 12.9 µM); in [6], 1 µg/mL (≈ 3.22 µM); in [7], below 0.1 µg/mL; in assay [8], below 0.1 µg/mL; in assay [9] it was 4 µg/mL (≈ 12.9 µM).
For the compound `CC(C)(C)c1ccc(C(c2ccc(-c3ccccc3)cc2)n2ccnc2)cc1` (centres unmarked), the MIC values for Klebsiella 8085 in [12] is 128 µg/mL. In addition, the MIC values for Proteus vulgaris 1017 in [13] was 128 µg/mL. The compound also came in with an MIC values for Pseudomonas aerug. B in [14] of 256 µg/mL. Also, the MIC values for Staphylococcus aureus 133 in assay [1] worked out at 8 µg/mL. In [2], the “MIC values for Streptococcus pyogenes W” value was determined as 128.
Consider `Clc1ccccc1C(c1ccc(Oc2ccccc2)cc1)n1ccnc1` (centres unmarked), for which the MIC in [4] was 16 µg/mL (≈ 44.3 µM); in [5] (setting [15]), 8 µg/mL (≈ 22.2 µM); in assay [6], 1 µg/mL (≈ 2.77 µM); in assay [7] (setting [16]), below 0.1 µg/mL; in [8], below 0.1 µg/mL; in [9], 2 µg/mL (≈ 5.54 µM).
As for `Clc1cccc(C(c2ccc(-c3ccccc3)cc2)n2ccnc2)c1` (centres unmarked) [drawing 11], the MIC in assay [4] is 2 µg/mL (≈ 5.8 µM); in assay [5] (setting [15]) it was 1 µg/mL (≈ 2.9 µM); in assay [6], 1 µg/mL (≈ 2.9 µM); in assay [7] (setting [16]), below 0.1 µg/mL; in assay [8] it was below 0.1 µg/mL; in assay [9], 2 µg/mL (≈ 5.8 µM).

Source of the values: patent US4118487A, “Substituted azol-1-ylmethanes” (Bayer Aktiengesellschaft, priority 1974, dated 1978).
